Our source for the GI50 and TGI values is PubChem BioAssay (NCI).

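1) Cells in 96-well plates. 2) Compound, 48 h, 5 concentrations. 3) Linear interpolation between surrounding doses. 4) Unreached endpoint = highest concentration. Here, GI50 denotes the concentration required for 50% inhibition of growth. TGI: concentration producing complete growth inhibition.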

Test systems include SK-MEL-2 melanoma; KM12 colon; EKVX NSCLC; COLO 205 colon; BT-549 breast; UO-31 renal; HCC-2998 colon; MOLT-4 leukemia; HOP-92 NSCLC; HT29 colon.
What all share (assay): DTP human tumour cell line panel, 48 h

In the case of `O=C(Cc1csc2nc(-c3ccc(Br)cc3)cn12)N/N=C/c1ccc(Cl)cc1Cl`, the GI50 was 72 µM in the test with SK-MEL-2 melanoma; 38.2 µM with KM12 colon; 31.6 µM with EKVX NSCLC; 75 µM in the test with COLO 205 colon; 25.9 µM in the test on BT-549 breast; 72.4 µM in the test on UO-31 renal. The GI50 is 20 µM in the test with HCC-2998 colon, 28.2 µM with HOP-92 NSCLC and 40.8 µM in the test with HT29 colon. In addition, the TGI in the test on SK-MEL-2 melanoma is above 100 µM; with KM12 colon it was above 100 µM; in the test with EKVX NSCLC it was above 100 µM; with COLO 205 colon, above 100 µM; with BT-549 breast it was 76.9 µM; with UO-31 renal, above 100 µM. The TGI in the test with HCC-2998 colon is 44.8 µM; with MOLT-4 leukemia, 26.3 µM; in the test on HOP-92 NSCLC it was above 100 µM; with HT29 colon, above 100 µM.

On to `CCCCCCCCNC(C)C(O)c1ccc(SC(C)C)cc1` (centres undefined), for which the GI50 was 2.05 µM with SK-MEL-2 melanoma; 1.76 µM with KM12 colon; 1.44 µM with EKVX NSCLC; 1.62 µM with COLO 205 colon; 1.82 µM in the test with BT-549 breast; 1.77 µM with UO-31 renal. Moreover, the GI50 in the test with HCC-2998 colon is 1.58 µM; in the test on MOLT-4 leukemia, 2.48 µM; with HOP-92 NSCLC, 1.17 µM; in the test with HT29 colon, 0.654 µM. Further, the TGI stood at 3.74 µM in the test with SK-MEL-2 melanoma; 3.18 µM with KM12 colon; 2.98 µM with EKVX NSCLC; 3 µM with COLO 205 colon; 3.33 µM in the test with BT-549 breast; 3.32 µM with UO-31 renal. Besides, the total growth inhibition concentration (TGI) in the test with HCC-2998 colon came to 3.02 µM; in the test on MOLT-4 leukemia, 5.27 µM; with HOP-92 NSCLC it was 2.53 µM; in the test with HT29 colon, 1.91 µM.

For the molecule `O=C(c1nn(-c2ccc(Cl)cc2)cc1O)n1nc(C(F)(F)F)cc1-c1ccccc1`, the GI50 in the test on SK-MEL-2 melanoma was 38.2 µM; in the test with KM12 colon, 5.09 µM; with EKVX NSCLC, 2 µM; in the test with COLO 205 colon, 2.97 µM; in the test with BT-549 breast it was 1.12 µM; with UO-31 renal, 2.9 µM. Also, the GI50 in the test with HCC-2998 colon is 9.4 µM; in the test on MOLT-4 leukemia it was 2.55 µM; in the test on HOP-92 NSCLC, 1.67 µM; in the test on HT29 colon, 4.07 µM. Moreover, the TGI is above 100 µM with SK-MEL-2 melanoma; above 100 µM with KM12 colon; above 100 µM in the test with EKVX NSCLC; above 44.2 µM with COLO 205 colon; above 100 µM in the test on BT-549 breast; above 100 µM with UO-31 renal. For the same molecule, the TGI in the test with HCC-2998 colon is above 100 µM; in the test with MOLT-4 leukemia it was above 100 µM; in the test on HOP-92 NSCLC, above 21.4 µM; with HT29 colon it was above 83.8 µM.

In the case of `O=C(Cn1c(C(=O)c2ccc(Cl)cc2)nc(-c2ccccc2)c1-c1ccccc1)c1ccc(Cl)cc1`, the GI50 in the test with SK-MEL-2 melanoma, in the test on KM12 colon, with EKVX NSCLC, in the test on COLO 205 colon, with BT-549 breast and in the test on UO-31 renal was above 100 µM throughout. The GI50 was above 100 µM in the test with HCC-2998 colon, above 100 µM in the test with MOLT-4 leukemia, 23.9 µM in the test with HOP-92 NSCLC and above 100 µM in the test with HT29 colon. Besides, the total growth inhibition concentration (TGI) in the test on SK-MEL-2 melanoma, in the test on KM12 colon, with EKVX NSCLC, in the test on COLO 205 colon, in the test on BT-549 breast and in the test on UO-31 renal was above 100 µM throughout. Further, the TGI with HCC-2998 colon, with MOLT-4 leukemia, in the test on HOP-92 NSCLC and in the test with HT29 colon was above 100 µM throughout.

In the case of `CN(C)CC1CCCCCC(Br)C1=O` (centres undefined), the TGI in the test with SK-MEL-2 melanoma came to 54.4 µM; with KM12 colon, 41 µM; in the test on EKVX NSCLC it was 30.8 µM; in the test on COLO 205 colon, 31.6 µM; in the test with BT-549 breast, 26.4 µM; in the test on UO-31 renal it was 26.6 µM. Further, the TGI worked out at 25.7 µM in the test with HCC-2998 colon, 2.83 µM in the test on MOLT-4 leukemia, 22.2 µM in the test on HOP-92 NSCLC and 50.3 µM with HT29 colon.

Take `O=C(Oc1ccccc1Cl)c1ccccc1Nc1cccc(C(F)(F)F)c1`: the GI50 with SK-MEL-2 melanoma was 20.9 µM; in the test with KM12 colon, 19.6 µM; with EKVX NSCLC, 33.1 µM; in the test with COLO 205 colon, 28 µM; with BT-549 breast it was 18.3 µM; in the test on UO-31 renal it was 30.9 µM. Further, the GI50 is 12.6 µM in the test with HCC-2998 colon, 3.89 µM with MOLT-4 leukemia, 5.81 µM in the test on HOP-92 NSCLC and 30 µM in the test with HT29 colon. Besides, the total growth inhibition concentration (TGI) in the test with SK-MEL-2 melanoma was above 100 µM; in the test with KM12 colon, 44.6 µM; in the test on EKVX NSCLC it was 79.6 µM; in the test with COLO 205 colon it was above 100 µM; in the test with BT-549 breast, 52.6 µM; in the test on UO-31 renal, above 100 µM. Besides, the TGI with HCC-2998 colon was 26.7 µM; with MOLT-4 leukemia, 14.6 µM; in the test on HOP-92 NSCLC, 38.2 µM; in the test on HT29 colon, above 100 µM.

Consider `OCCn1cc(-c2cnc3nnn(Cc4ccc5ncccc5c4)c3n2)cn1`, for which the GI50 is above 76.2 µM in the test on SK-MEL-2 melanoma; above 100 µM in the test on KM12 colon; above 100 µM in the test with EKVX NSCLC; above 100 µM in the test with COLO 205 colon; above 100 µM in the test on BT-549 breast; above 100 µM in the test with UO-31 renal. Also, the GI50 was above 100 µM with HCC-2998 colon, above 100 µM with MOLT-4 leukemia, 13 µM in the test on HOP-92 NSCLC and above 100 µM with HT29 colon. Further, the total growth inhibition concentration (TGI) with SK-MEL-2 melanoma, with KM12 colon, with EKVX NSCLC, with COLO 205 colon, in the test on BT-549 breast and in the test on UO-31 renal was above 100 µM in each case. Besides, the TGI in the test on HCC-2998 colon, in the test with MOLT-4 leukemia, in the test with HOP-92 NSCLC and with HT29 colon was above 100 µM throughout.

For `COc1ccc(/C=C\c2cc(OC)c(OC)c(OC)c2)cc1OCC(=O)Nc1nc2ccccc2s1`, the GI50 with SK-MEL-2 melanoma was 0.187 µM; in the test with KM12 colon, 0.0646 µM; with EKVX NSCLC, 3.65 µM; with COLO 205 colon, 3.26 µM; with BT-549 breast, 0.303 µM; in the test on UO-31 renal, 0.381 µM. Moreover, the GI50 in the test on HCC-2998 colon is 0.447 µM; with MOLT-4 leukemia, 0.366 µM; in the test on HOP-92 NSCLC, 0.204 µM; in the test with HT29 colon, 2.72 µM. For the same molecule, the TGI is above 100 µM in the test with SK-MEL-2 melanoma; above 100 µM in the test on KM12 colon; above 100 µM with EKVX NSCLC; above 49.5 µM in the test on COLO 205 colon; above 100 µM in the test on BT-549 breast; above 100 µM in the test with UO-31 renal. In addition, the TGI in the test on HCC-2998 colon was above 100 µM; in the test with MOLT-4 leukemia, above 100 µM; in the test on HOP-92 NSCLC, above 31.1 µM; with HT29 colon, above 48.9 µM.

One may read the GI50 as the concentration at which growth is held to half of that of the control. One may read the TGI as the concentration giving total growth inhibition. The low end stands for more potent growth arrest, the high end for less potent growth arrest.
